Laboratory results: ChEMBL document CHEMBL6153050, “Repurposing FDA-approved drugs to target G-quadruplexes in breast cancer” (Eur J Med Chem, 2025)
Active and inactive are the calls of the source. No cut-off for these calls is given here.

Legend:
Quadruplex DNA [1] = details: time 10.0 min
Quadruplex DNA [2] = details: time 10.0 min; remark: listed apart in the source
Quadruplex DNA [3] = details: time 10.0 min; remark: listed apart in the source
Quadruplex DNA [4] = details: time 10.0 min; remark: listed apart in the source
Quadruplex RNA [5] = details: time 10.0 min
Quadruplex RNA [6] = details: time 10.0 min; remark: listed apart in the source
MCF7 [7] = experiment: Cytotoxicity against human MCF7 cells assessed as reduction in cell viability at 0.625 to 20 uM incubated for 6 days by SRB assay; type: functional, cell-based; details: dose 0.625-20 µM, time 6.0 day
MDA-MB-231 [8] = experiment: Cytotoxicity against human MDA-MB-231 cells assessed as reduction in cell viability at 20 uM incubated for 6 days by SRB assay; type: functional, cell-based; details: time 6.0 day
SK-BR-3 = experiment: Cytotoxicity against human SK-BR-3 cells assessed as reduction in cell viability at 20 uM incubated for 6 days by SRB assay; type: functional, cell-based; details: time 6.0 day
MDA-MB-231 [9] = experiment: Cytotoxicity against human MDA-MB-231 cells assessed as reduction in cell viability incubated for 6 days by SRB assay; type: functional, cell-based; details: Homo sapiens, MDA-MB-231, 144 h; for IC25: time 6 day, read-out: IC25
MCF7 [10] = experiment: Cytotoxicity against human MCF7 cells assessed as reduction in cell viability incubated for 6 days by SRB assay; type: functional, cell-based; details: Homo sapiens, MCF7, 144 h; for IC25: time 6 day, read-out: IC25
MCF7 [11] = experiment: Effect on cell cycle arrest in human MCF7 cells at IC25 concentration incubated for 6 days by PI staining based flow cytometric analysis; type: functional; details: time 6.0 day
MCF7 [12] = experiment: Effect on cell cycle arrest in human MCF7 cells at IC50 concentration incubated for 6 days by PI staining based flow cytometric analysis; type: functional; details: time 6.0 day
MDA-MB-231 [13] = experiment: Effect on cell cycle arrest in human MDA-MB-231 cells at IC25 concentration incubated for 6 days by PI staining based flow cytometric analysis; type: functional; details: time 6.0 day
MDA-MB-231 [14] = experiment: Effect on cell cycle arrest in human MDA-MB-231 cells at IC50 concentration incubated for 6 days by PI staining based flow cytometric analysis; type: functional; details: time 6.0 day
MDA-MB-231 [15] = experiment: Induction of DNA damage in human MDA-MB-231 cells assessed as increase in gamma-H2AX level at IC50 concentration incubated for 6 days by flow cytometric analysis; type: functional, cell-based; details: time 6.0 day
MCF7 [16] = experiment: Induction of DNA damage in human MCF7 cells assessed as increase in gamma-H2AX level at IC50 concentration incubated for 6 days by flow cytometric analysis; type: functional, cell-based; details: time 6.0 day
Quadruplex DNA [17] = experiment: Stabilization of G4 quadruplex DNA (unknown origin) in human MCF7 cells at IC50 concentration incubated for 6 days by flow cytometric analysis; type: cell-based; details: time 6.0 day
Quadruplex DNA [18] = experiment: Stabilization of G4 quadruplex DNA (unknown origin) in human MDA-MB-231 cells assessed as increase in G4 motif at IC50 concentration incubated for 6 days by flow cytometric analysis; type: cell-based; details: time 6.0 day
MDA-MB-231 [19] = experiment: Induction of DNA damage in human MDA-MB-231 cells assessed as increase in gamma-H2AX level at IC25 concentration incubated for 6 days by flow cytometric analysis; type: functional, cell-based; details: time 6.0 day
MCF7 [20] = experiment: Induction of DNA damage in human MCF7 cells assessed as increase in gamma-H2AX level at IC25 concentration incubated for 6 days by flow cytometric analysis; type: functional, cell-based; details: time 6.0 day
Quadruplex DNA [21] = experiment: Stabilization of G4 quadruplex DNA (unknown origin) in human MDA-MB-231 cells at IC25 concentration incubated for 6 days by flow cytometric analysis; type: cell-based; details: time 6.0 day
Quadruplex DNA [22] = experiment: Stabilization of G4 quadruplex DNA (unknown origin) in human MDA-MB-231 cells at IC50 concentration incubated for 6 days by flow cytometric analysis; type: cell-based; details: time 6.0 day
Quadruplex DNA [23] = experiment: Stabilization of G4 quadruplex DNA (unknown origin) in human MCF7 cells at IC25 concentration incubated for 6 days by flow cytometric analysis; type: cell-based; details: time 6.0 day

| SMILES | deltaTm1/2 (Quadruplex DNA [1]) | deltaTm1/2 (Quadruplex DNA [2]) | deltaTm1/2 (Quadruplex DNA [3]) | deltaTm1/2 (Quadruplex DNA [4]) | deltaTm1/2 (Quadruplex RNA [5]) | deltaTm1/2 (Quadruplex RNA [6]) | other results |
| --- | --- | --- | --- | --- | --- | --- | --- |
| COc1cc(NC(C)CCCN)c2ncccc2c1 (stereo not given) | 0.4 °C | -2.6 °C | 3.6 °C | 3.7 °C | 4.2 °C | 0.3 °C |  |
| CN1CCC[C@@H]1Cc1c[nH]c2ccc(CCS(=O)(=O)c3ccccc3)cc12 | 0.6 °C | 5.2 °C | 6 °C | 4 °C | 4.5 °C | 0.8 °C | Activity (MCF7 [7]): Active |
| N[C@@H]1CCCCN(c2c(F)cc3c(=O)c(C(=O)O)cn(C4CC4)c3c2Cl)C1 | 1.3 °C | 1.7 °C | 4.9 °C | -0.3 °C | 2.8 °C | 1.7 °C |  |
| CCc1cc2c(cc1N1CCC(N3CCOCC3)CC1)C(C)(C)c1[nH]c3cc(C#N)ccc3c1C2=O | 0 °C | -3.3 °C | 2.5 °C | -1.1 °C | 4.6 °C | 1.1 °C |  |
| CONC(=O)Nc1ccc(-c2sc3c(c2CN(C)C)c(=O)n(-c2ccc(OC)nn2)c(=O)n3Cc2c(F)cccc2F)cc1 | 2.4 °C | 1.9 °C | 9.8 °C | 4.3 °C | 9.7 °C | -0.2 °C |  |
| CCn1cc(C(=O)O)c(=O)c2cc(F)c(N3CCN(C)CC3)cc21 | 4.6 °C | 4.5 °C | 8 °C | 1 °C | 9.8 °C | 3.3 °C |  |
| COc1cc(O)c(C(=O)Nc2nc(C(=O)NCCN(C(C)C)C(C)C)cs2)cc1OC | 3.9 °C | 4.4 °C | 9.5 °C | 9.4 °C | 7.5 °C | 3.5 °C |  |
| Cn1nnc(-c2ccc(-c3ccc(N4C[C@H](CO)OC4=O)cc3F)cn2)n1 | 1.2 °C | 1 °C | 3 °C | 2.3 °C | 1 °C | 1.2 °C |  |
| CN1CCCC(n2nc(Cc3ccc(Cl)cc3)c3ccccc3c2=O)CC1 (stereo not given) [AZELASTINE] | 7.7 °C | 5.3 °C | 17.1 °C | 8.1 °C | 9.6 °C | 2.3 °C | Activity (MDA-MB-231 [8]): Active; Activity (SK-BR-3): Active; IC50 (MDA-MB-231 [9]): 8.2 µM; IC25 (MDA-MB-231 [9]): 5.2 µM; IC50 (MCF7 [10]): 10.3 µM; IC25 (MCF7 [10]): 5.8 µM; Activity (MCF7 [11]): inactive; Activity (MCF7 [12]): inactive; Activity (MDA-MB-231 [13]): inactive; Activity (MDA-MB-231 [14]): inactive; Activity (MDA-MB-231 [15]): inactive; Activity (MCF7 [16]): Active; Activity (Quadruplex DNA [17]): Active; Activity (Quadruplex DNA [18]): Active |
| Cc1cc2ncc(C(=O)NCC(C)(C)NCC(=O)N3CCC[C@H]3C#N)cn2n1 | -0.1 °C | 5.4 °C | 3.1 °C | -0.9 °C | 1.9 °C | 0.4 °C |  |
| CCCCOc1cc(C(=O)NCCN(CC)CC)c2ccccc2n1 | 0.2 °C | 4.4 °C | 5.4 °C | 2.8 °C | 3.2 °C | 1 °C |  |
| O=C(c1ccc(OCCN2CCCCC2)cc1)c1c(-c2ccc(O)cc2)sc2cc(O)ccc12 [RALOXIFENE] | 4 °C | 3.2 °C | 11 °C | 7.8 °C | 6.3 °C | 1.6 °C | IC50 (MDA-MB-231 [9]): 10.3 µM; IC25 (MDA-MB-231 [9]): 8.2 µM; IC50 (MCF7 [10]): 2.7 µM; IC25 (MCF7 [10]): 0.63 µM; Activity (MCF7 [11]): inactive; Activity (MCF7 [12]): inactive; Activity (MDA-MB-231 [13]): inactive; Activity (MDA-MB-231 [14]): inactive; Activity (MDA-MB-231 [19]): inactive; Activity (MDA-MB-231 [15]): inactive; Activity (MCF7 [20]): inactive; Activity (MCF7 [16]): inactive; Activity (Quadruplex DNA [21]): inactive; Activity (Quadruplex DNA [22]): inactive; Activity (Quadruplex DNA [23]): inactive; Activity (Quadruplex DNA [17]): inactive |
| COc1c(-c2ccc3cc(NS(C)(=O)=O)ccc3c2)cc(-n2ccc(=O)[nH]c2=O)cc1C(C)(C)C | -0.4 °C | 4.5 °C | 1.4 °C | -0.7 °C | 2.6 °C | -0.3 °C |  |
| CN(C)CCCOc1nn(Cc2ccccc2)c2ccccc12 | 2.5 °C | 3 °C | 8.4 °C | 1.1 °C | 5.1 °C | 0.3 °C |  |
| CCc1cc2c(cc1CC)CC(NC[C@H](O)c1ccc(O)c3[nH]c(=O)ccc13)C2 [INDACATEROL] | 1.5 °C | 5.8 °C | 6.2 °C | 4 °C | 4.9 °C | 0.6 °C | IC50 (MCF7 [10]): 7.4 µM; IC25 (MCF7 [10]): 4.3 µM |
| CCN(CC)CCCC(C)Nc1c2ccc(Cl)cc2nc2ccc(OC)cc12 (stereo not given) | > 20 °C | 18.5 °C | > 20 °C | > 20 °C | > 20 °C | 15.4 °C |  |
| COc1ccc(-c2cc(=O)c3c(OC)c(OC)c(OC)cc3o2)cc1OC | 1.5 °C | 4 °C | 10.6 °C | 5.3 °C | 8.1 °C | 1.1 °C |  |
